Laboratory results taken from PMC5933782, “Molecular structures of cdc2-like kinases in complex with a new inhibitor chemotype” (PLoS ONE, 2018).

target: T1, CDK5/p25 (Homo sapiens, UniProt Q00535); assay: radiometric protein kinase assay; assay type: biochemical; details: 10 µM concentration; ± SEM
T1 construct: made in house
T1 sequence (Q00535 whole entry): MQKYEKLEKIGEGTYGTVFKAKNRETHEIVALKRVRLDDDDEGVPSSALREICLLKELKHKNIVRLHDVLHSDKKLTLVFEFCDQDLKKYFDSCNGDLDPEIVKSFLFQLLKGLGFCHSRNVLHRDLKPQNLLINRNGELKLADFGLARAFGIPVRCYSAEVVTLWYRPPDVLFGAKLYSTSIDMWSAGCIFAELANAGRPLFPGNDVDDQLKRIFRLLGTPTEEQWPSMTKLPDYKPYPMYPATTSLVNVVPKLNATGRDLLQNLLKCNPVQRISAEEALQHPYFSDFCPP
T1 sequence (Q15078 99-307 partner limits assumed): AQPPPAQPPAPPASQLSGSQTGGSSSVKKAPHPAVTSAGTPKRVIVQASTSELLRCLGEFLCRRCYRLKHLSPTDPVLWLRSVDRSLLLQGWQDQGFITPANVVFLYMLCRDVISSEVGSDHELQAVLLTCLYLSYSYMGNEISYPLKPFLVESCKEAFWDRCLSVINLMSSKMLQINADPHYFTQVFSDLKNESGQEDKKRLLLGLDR

Row | Compound | Residual enzyme activity CDK5/p25
1 | Cc1c(-c2ccccc2)[nH]c2c3c(ccc12)CNC3=O [S18c] | 105±11%

same assay, conditions: 15 μmol/L ATP

Row | Compound | IC50
2 | CCn1cc(-c2ccccc2)c2ccc3c(c21)C(=O)NC3 [15b, 1-Ethyl-3-phenyl-6,7-dihydropyrrolo[3,4-g]indol-8(1H)-one] | > 10 µM
3 | CCOC(=O)Cn1cc(-c2ccccc2)c2ccc3c(c21)C(=O)NC3 [15d, Ethyl 2-(8-oxo-3-phenyl-7,8-dihydropyrrolo[3,4-g]indol-1(6H)-yl)acetate] | > 10 µM
4 | O=C1NCc2c(-c3ccccc3)cc3c(-c4ccccc4)c[nH]c3c21 [17a, 3,5-Diphenyl-6,7-dihydropyrrolo[3,4-g]indol-8(1H)-one] | > 10 µM

target: DYRK1A (Homo sapiens, UniProt Q13627); assay: radiometric protein kinase assay; assay type: biochemical; details: 10 µM concentration; ± SEM

Row | Compound | Residual enzyme activity DYRK 1A
5 | Cc1c(-c2ccccc2)[nH]c2c3c(ccc12)CNC3=O [S18c] | 58±7%

same assay, conditions: 15 μmol/L ATP; read-out: IC50 DYRK 1A

Row | Compound | IC50
6 | CCn1cc(-c2ccccc2)c2ccc3c(c21)C(=O)NC3 [15b, 1-Ethyl-3-phenyl-6,7-dihydropyrrolo[3,4-g]indol-8(1H)-one] | 3.9 µM
7 | CCOC(=O)Cn1cc(-c2ccccc2)c2ccc3c(c21)C(=O)NC3 [15d, Ethyl 2-(8-oxo-3-phenyl-7,8-dihydropyrrolo[3,4-g]indol-1(6H)-yl)acetate] | > 10 µM
8 | O=C1NCc2c(-c3ccccc3)cc3c(-c4ccccc4)c[nH]c3c21 [17a, 3,5-Diphenyl-6,7-dihydropyrrolo[3,4-g]indol-8(1H)-one] | > 10 µM

target: CLK3 (Mus musculus, UniProt O35492); assay: radiometric protein kinase assay; details: not given
Sequence (O35492 whole entry): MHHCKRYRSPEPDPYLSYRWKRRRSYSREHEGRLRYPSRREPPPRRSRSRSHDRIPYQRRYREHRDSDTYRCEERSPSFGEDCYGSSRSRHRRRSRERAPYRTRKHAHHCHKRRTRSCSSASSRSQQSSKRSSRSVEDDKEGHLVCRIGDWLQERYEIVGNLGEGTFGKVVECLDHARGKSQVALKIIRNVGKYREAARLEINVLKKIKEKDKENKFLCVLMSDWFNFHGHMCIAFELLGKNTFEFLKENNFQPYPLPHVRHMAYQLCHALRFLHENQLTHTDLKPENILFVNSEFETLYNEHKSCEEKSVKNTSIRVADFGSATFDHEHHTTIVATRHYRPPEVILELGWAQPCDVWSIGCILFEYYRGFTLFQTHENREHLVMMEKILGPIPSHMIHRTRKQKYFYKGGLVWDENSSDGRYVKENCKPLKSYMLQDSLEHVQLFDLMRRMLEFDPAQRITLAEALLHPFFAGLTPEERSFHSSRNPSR

Row | Compound | IC50
9 | O=C1NCc2c(-c3ccccc3)cc3c(-c4ccccc4)c[nH]c3c21 [17a, 3,5-Diphenyl-6,7-dihydropyrrolo[3,4-g]indol-8(1H)-one] | > 10 µM

same assay, conditions: 10 µM concentration; ± SEM

Row | Compound | Residual enzyme activity CLK 3
10 | Cc1c(-c2ccccc2)[nH]c2c3c(ccc12)CNC3=O [S18c] | 93±9%

target: T2, DYRK2 (Homo sapiens, UniProt Q92630); assay: radiometric protein kinase assay; assay type: biochemical; details: 10 µM concentration; ± SEM
T2 sequence (Q92630 1-601): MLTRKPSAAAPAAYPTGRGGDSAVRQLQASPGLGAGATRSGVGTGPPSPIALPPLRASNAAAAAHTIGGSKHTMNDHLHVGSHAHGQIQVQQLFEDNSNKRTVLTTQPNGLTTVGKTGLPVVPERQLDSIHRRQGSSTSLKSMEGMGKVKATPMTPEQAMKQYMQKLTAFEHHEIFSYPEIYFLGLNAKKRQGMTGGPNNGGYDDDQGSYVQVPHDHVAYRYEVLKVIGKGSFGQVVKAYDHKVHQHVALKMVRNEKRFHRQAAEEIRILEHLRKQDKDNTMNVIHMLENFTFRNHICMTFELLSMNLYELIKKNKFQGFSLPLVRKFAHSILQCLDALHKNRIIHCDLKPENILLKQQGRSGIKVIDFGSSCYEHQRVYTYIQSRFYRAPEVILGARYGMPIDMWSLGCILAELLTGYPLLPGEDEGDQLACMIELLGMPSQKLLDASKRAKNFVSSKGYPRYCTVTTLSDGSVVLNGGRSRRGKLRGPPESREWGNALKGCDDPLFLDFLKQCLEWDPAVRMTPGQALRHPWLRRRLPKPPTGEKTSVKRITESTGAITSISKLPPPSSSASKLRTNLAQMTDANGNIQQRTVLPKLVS

Row | Compound | Residual enzyme activity DYRK 2
11 | Cc1c(-c2ccccc2)[nH]c2c3c(ccc12)CNC3=O [S18c] | 57±25%

same assay, conditions: 15 μmol/L ATP; read-out: IC50 DYRK 2

Row | Compound | IC50
12 | O=C1NCc2c(-c3ccccc3)cc3c(-c4ccccc4)c[nH]c3c21 [17a, 3,5-Diphenyl-6,7-dihydropyrrolo[3,4-g]indol-8(1H)-one] | > 10 µM

target: CLK1 (Mus musculus, UniProt P22518); assay: radiometric protein kinase assay; details: not given
Sequence (P22518 whole entry): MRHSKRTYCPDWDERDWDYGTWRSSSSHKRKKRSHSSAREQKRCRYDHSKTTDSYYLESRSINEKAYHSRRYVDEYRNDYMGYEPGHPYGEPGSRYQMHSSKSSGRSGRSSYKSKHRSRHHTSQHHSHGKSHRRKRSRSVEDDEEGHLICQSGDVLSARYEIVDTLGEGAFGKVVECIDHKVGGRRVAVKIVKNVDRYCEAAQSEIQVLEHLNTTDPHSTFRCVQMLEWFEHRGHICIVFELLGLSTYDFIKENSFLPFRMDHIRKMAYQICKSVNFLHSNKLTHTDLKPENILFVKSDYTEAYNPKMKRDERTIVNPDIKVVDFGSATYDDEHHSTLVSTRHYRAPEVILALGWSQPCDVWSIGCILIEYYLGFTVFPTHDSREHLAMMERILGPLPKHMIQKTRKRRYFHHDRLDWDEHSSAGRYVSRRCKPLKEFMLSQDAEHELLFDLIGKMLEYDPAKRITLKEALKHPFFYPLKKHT

Row | Compound | IC50
13 | CCn1cc(-c2ccccc2)c2ccc3c(c21)C(=O)NC3 [15b, 1-Ethyl-3-phenyl-6,7-dihydropyrrolo[3,4-g]indol-8(1H)-one] | 0.38 µM
14 | CCOC(=O)Cn1cc(-c2ccccc2)c2ccc3c(c21)C(=O)NC3 [15d, Ethyl 2-(8-oxo-3-phenyl-7,8-dihydropyrrolo[3,4-g]indol-1(6H)-yl)acetate] | > 10 µM
15 | O=C1NCc2c(-c3ccccc3)cc3c(-c4ccccc4)c[nH]c3c21 [17a, 3,5-Diphenyl-6,7-dihydropyrrolo[3,4-g]indol-8(1H)-one] | 8.8 µM

same assay, conditions: 10 µM concentration; ± SEM

Row | Compound | Residual enzyme activity CLK 1
16 | Cc1c(-c2ccccc2)[nH]c2c3c(ccc12)CNC3=O [S18c] | 29±4%

test system: GSK-3; assay: radiometric protein kinase assay; assay type: biochemical, porcine; details: 10 µM concentration; ± SEM

Row | Compound | Residual enzyme activity GSK3
17 | Cc1c(-c2ccccc2)[nH]c2c3c(ccc12)CNC3=O [S18c] | 112±2%

same assay, conditions: 15 μmol/L ATP; read-out: IC50 GSK3

Row | Compound | IC50
18 | CCn1cc(-c2ccccc2)c2ccc3c(c21)C(=O)NC3 [15b, 1-Ethyl-3-phenyl-6,7-dihydropyrrolo[3,4-g]indol-8(1H)-one] | > 10 µM
19 | CCOC(=O)Cn1cc(-c2ccccc2)c2ccc3c(c21)C(=O)NC3 [15d, Ethyl 2-(8-oxo-3-phenyl-7,8-dihydropyrrolo[3,4-g]indol-1(6H)-yl)acetate] | > 10 µM
20 | O=C1NCc2c(-c3ccccc3)cc3c(-c4ccccc4)c[nH]c3c21 [17a, 3,5-Diphenyl-6,7-dihydropyrrolo[3,4-g]indol-8(1H)-one] | > 10 µM

test system: not given; assay: not given; details: not given

Row | Compound | melting point
21 | CCn1cc(-c2ccccc2)c2ccc3c(c21)C(=O)NC3 [15b, 1-Ethyl-3-phenyl-6,7-dihydropyrrolo[3,4-g]indol-8(1H)-one] | 198 to 200 °C
22 | CCOC(=O)Cn1cc(-c2ccccc2)c2ccc3c(c21)C(=O)NC3 [15d, Ethyl 2-(8-oxo-3-phenyl-7,8-dihydropyrrolo[3,4-g]indol-1(6H)-yl)acetate] | 226 to 227 °C

target: CLK2 (Mus musculus, UniProt O35491); assay: radiometric protein kinase assay; details: not given
Sequence (O35491 whole entry): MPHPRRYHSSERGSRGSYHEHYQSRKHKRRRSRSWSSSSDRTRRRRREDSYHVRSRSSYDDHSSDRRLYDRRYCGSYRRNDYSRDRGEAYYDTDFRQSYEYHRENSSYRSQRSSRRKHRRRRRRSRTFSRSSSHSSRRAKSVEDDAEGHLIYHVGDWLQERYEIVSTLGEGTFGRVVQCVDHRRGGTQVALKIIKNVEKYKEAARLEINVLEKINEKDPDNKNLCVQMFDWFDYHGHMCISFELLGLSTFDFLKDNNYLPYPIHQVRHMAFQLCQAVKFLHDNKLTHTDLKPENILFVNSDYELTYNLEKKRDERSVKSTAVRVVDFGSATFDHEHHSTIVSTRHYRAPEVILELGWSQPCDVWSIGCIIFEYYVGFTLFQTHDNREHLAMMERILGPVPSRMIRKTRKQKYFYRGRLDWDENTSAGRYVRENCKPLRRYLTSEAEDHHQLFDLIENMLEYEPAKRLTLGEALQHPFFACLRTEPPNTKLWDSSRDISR

Row | Compound | IC50
23 | O=C1NCc2c(-c3ccccc3)cc3c(-c4ccccc4)c[nH]c3c21 [17a, 3,5-Diphenyl-6,7-dihydropyrrolo[3,4-g]indol-8(1H)-one] | 7.2 µM

same assay, conditions: 10 µM concentration; ± SEM

Row | Compound | Residual enzyme activity CLK 2
24 | Cc1c(-c2ccccc2)[nH]c2c3c(ccc12)CNC3=O [S18c] | 30±1%

test system: CK1δ/ε; assay: radiometric protein kinase assay; assay type: biochemical, porcine; details: 10 µM concentration; ± SEM

Row | Compound | Residual enzyme activity CK1
25 | Cc1c(-c2ccccc2)[nH]c2c3c(ccc12)CNC3=O [S18c] | 57±5%

same assay, conditions: 15 μmol/L ATP; read-out: IC50 CK1

Row | Compound | IC50
26 | CCn1cc(-c2ccccc2)c2ccc3c(c21)C(=O)NC3 [15b, 1-Ethyl-3-phenyl-6,7-dihydropyrrolo[3,4-g]indol-8(1H)-one] | > 10 µM
27 | CCOC(=O)Cn1cc(-c2ccccc2)c2ccc3c(c21)C(=O)NC3 [15d, Ethyl 2-(8-oxo-3-phenyl-7,8-dihydropyrrolo[3,4-g]indol-1(6H)-yl)acetate] | > 10 µM
28 | O=C1NCc2c(-c3ccccc3)cc3c(-c4ccccc4)c[nH]c3c21 [17a, 3,5-Diphenyl-6,7-dihydropyrrolo[3,4-g]indol-8(1H)-one] | > 10 µM

target: DYRK1B (Homo sapiens, UniProt Q9Y463); assay: radiometric protein kinase assay; assay type: biochemical; details: 10 µM concentration; ± SEM
Sequence (Q9Y463 whole entry): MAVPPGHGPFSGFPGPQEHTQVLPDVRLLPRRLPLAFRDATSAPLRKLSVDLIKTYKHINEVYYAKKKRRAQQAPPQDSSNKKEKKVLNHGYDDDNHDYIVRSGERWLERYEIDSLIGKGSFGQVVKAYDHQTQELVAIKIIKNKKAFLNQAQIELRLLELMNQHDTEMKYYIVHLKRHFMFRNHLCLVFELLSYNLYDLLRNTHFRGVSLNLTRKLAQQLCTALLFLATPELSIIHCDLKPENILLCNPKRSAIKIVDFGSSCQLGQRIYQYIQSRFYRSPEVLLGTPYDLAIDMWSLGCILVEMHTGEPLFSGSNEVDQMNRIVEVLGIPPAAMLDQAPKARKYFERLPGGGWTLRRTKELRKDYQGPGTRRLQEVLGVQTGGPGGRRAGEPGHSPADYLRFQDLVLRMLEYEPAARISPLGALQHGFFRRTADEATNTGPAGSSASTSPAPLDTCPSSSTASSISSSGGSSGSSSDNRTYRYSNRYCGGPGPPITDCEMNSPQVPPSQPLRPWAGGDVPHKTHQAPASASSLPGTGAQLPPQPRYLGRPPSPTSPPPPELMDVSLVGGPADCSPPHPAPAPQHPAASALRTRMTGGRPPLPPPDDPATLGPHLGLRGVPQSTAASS

Row | Compound | Residual enzyme activity DYRK 1B
29 | Cc1c(-c2ccccc2)[nH]c2c3c(ccc12)CNC3=O [S18c] | 50±7%

same assay, conditions: 15 μmol/L ATP; read-out: IC50 DYRK 1B

Row | Compound | IC50
30 | O=C1NCc2c(-c3ccccc3)cc3c(-c4ccccc4)c[nH]c3c21 [17a, 3,5-Diphenyl-6,7-dihydropyrrolo[3,4-g]indol-8(1H)-one] | > 10 µM

target: CDK9/cyclin T (Homo sapiens, UniProt P50750); assay: radiometric protein kinase assay; details: not given
Sequence (P50750 whole entry): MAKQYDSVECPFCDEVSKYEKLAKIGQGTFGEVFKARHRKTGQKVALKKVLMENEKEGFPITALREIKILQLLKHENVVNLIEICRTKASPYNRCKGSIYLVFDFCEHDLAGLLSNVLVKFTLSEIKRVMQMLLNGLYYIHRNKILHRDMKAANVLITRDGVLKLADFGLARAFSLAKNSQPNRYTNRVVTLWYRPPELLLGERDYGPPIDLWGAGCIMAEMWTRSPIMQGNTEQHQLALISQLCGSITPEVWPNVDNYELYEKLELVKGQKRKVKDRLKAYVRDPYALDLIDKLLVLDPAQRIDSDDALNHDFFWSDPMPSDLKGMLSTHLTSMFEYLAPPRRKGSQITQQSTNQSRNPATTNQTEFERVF
Sequence (O60563 whole entry partner): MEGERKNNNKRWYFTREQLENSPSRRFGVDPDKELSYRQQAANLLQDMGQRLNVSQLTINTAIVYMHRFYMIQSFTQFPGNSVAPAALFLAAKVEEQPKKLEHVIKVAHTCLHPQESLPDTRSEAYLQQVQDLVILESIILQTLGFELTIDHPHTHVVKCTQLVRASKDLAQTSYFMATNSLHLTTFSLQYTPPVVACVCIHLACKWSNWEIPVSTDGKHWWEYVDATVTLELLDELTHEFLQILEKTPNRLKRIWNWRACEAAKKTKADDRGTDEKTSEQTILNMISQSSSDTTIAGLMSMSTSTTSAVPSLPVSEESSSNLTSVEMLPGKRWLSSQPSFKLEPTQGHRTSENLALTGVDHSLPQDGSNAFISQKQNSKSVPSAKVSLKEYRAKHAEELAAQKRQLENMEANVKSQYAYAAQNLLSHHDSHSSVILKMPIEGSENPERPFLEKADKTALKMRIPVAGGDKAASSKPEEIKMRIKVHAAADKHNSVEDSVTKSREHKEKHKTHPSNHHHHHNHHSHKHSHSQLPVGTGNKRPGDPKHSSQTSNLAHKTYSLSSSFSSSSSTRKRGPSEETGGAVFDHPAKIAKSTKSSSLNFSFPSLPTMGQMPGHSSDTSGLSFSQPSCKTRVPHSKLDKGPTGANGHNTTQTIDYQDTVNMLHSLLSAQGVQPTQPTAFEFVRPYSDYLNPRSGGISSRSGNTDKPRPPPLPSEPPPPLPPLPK

Row | Compound | IC50
31 | CCn1cc(-c2ccccc2)c2ccc3c(c21)C(=O)NC3 [15b, 1-Ethyl-3-phenyl-6,7-dihydropyrrolo[3,4-g]indol-8(1H)-one] | > 10 µM
32 | CCOC(=O)Cn1cc(-c2ccccc2)c2ccc3c(c21)C(=O)NC3 [15d, Ethyl 2-(8-oxo-3-phenyl-7,8-dihydropyrrolo[3,4-g]indol-1(6H)-yl)acetate] | > 10 µM
33 | O=C1NCc2c(-c3ccccc3)cc3c(-c4ccccc4)c[nH]c3c21 [17a, 3,5-Diphenyl-6,7-dihydropyrrolo[3,4-g]indol-8(1H)-one] | > 10 µM

same assay, conditions: 10 µM concentration; ± SEM

Row | Compound | Residual enzyme activity CDK9/cyclin T
34 | Cc1c(-c2ccccc2)[nH]c2c3c(ccc12)CNC3=O [S18c] | 89±6%

test system: CDK1/cyclin B; assay: radiometric protein kinase assay; assay type: biochemical, starfish; details: 10 µM concentration; ± SEM

Row | Compound | Residual enzyme activity CDK1/cyclin B
35 | Cc1c(-c2ccccc2)[nH]c2c3c(ccc12)CNC3=O [S18c] | 77±26%

same assay, conditions: 15 μmol/L ATP

Row | Compound | IC50
36 | CCn1cc(-c2ccccc2)c2ccc3c(c21)C(=O)NC3 [15b, 1-Ethyl-3-phenyl-6,7-dihydropyrrolo[3,4-g]indol-8(1H)-one] | > 10 µM
37 | CCOC(=O)Cn1cc(-c2ccccc2)c2ccc3c(c21)C(=O)NC3 [15d, Ethyl 2-(8-oxo-3-phenyl-7,8-dihydropyrrolo[3,4-g]indol-1(6H)-yl)acetate] | > 10 µM
38 | O=C1NCc2c(-c3ccccc3)cc3c(-c4ccccc4)c[nH]c3c21 [17a, 3,5-Diphenyl-6,7-dihydropyrrolo[3,4-g]indol-8(1H)-one] | > 10 µM

target: CLK4 (Mus musculus, UniProt O35493); assay: radiometric protein kinase assay; details: not given
Sequence (O35493 whole entry): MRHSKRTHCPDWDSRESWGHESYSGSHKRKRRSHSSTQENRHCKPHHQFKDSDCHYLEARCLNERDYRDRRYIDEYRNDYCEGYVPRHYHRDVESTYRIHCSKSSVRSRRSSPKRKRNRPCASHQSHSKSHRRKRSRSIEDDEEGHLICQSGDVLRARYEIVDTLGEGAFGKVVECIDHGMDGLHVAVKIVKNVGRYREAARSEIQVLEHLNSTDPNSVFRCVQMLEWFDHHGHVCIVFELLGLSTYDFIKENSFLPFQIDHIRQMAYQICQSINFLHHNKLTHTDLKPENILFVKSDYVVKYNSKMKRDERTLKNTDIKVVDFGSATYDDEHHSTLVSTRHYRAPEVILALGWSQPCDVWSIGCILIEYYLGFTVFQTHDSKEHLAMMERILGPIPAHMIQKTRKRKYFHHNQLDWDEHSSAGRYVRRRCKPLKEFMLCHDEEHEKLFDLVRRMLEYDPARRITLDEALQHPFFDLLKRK

Row | Compound | IC50
39 | O=C1NCc2c(-c3ccccc3)cc3c(-c4ccccc4)c[nH]c3c21 [17a, 3,5-Diphenyl-6,7-dihydropyrrolo[3,4-g]indol-8(1H)-one] | 1300 nM

same assay, conditions: 10 µM concentration; ± SEM

Row | Compound | Residual enzyme activity CLK 4
40 | Cc1c(-c2ccccc2)[nH]c2c3c(ccc12)CNC3=O [S18c] | 10±0%

target: T3, DYRK3 (Homo sapiens, UniProt O43781); assay: radiometric protein kinase assay; assay type: biochemical; details: 10 µM concentration; ± SEM
T3 sequence (O43781 1-588): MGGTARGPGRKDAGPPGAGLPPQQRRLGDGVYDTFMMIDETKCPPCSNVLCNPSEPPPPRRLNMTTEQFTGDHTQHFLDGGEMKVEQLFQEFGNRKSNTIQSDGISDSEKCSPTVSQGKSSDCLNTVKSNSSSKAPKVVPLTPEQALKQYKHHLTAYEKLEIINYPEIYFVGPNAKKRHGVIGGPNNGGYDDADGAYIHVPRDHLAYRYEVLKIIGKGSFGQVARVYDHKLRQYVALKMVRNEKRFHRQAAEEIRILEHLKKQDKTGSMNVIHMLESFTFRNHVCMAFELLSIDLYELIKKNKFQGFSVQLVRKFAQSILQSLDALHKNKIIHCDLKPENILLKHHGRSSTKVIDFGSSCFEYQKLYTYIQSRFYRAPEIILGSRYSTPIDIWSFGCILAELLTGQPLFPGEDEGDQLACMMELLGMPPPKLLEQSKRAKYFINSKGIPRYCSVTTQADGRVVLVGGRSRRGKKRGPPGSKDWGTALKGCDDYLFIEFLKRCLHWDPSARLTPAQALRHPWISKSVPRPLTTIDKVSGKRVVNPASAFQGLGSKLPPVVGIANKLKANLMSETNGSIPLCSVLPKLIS

Row | Compound | Residual enzyme activity DYRK 3
41 | Cc1c(-c2ccccc2)[nH]c2c3c(ccc12)CNC3=O [S18c] | 91±17%

same assay, conditions: 15 μmol/L ATP; read-out: IC50 DYRK 3

Row | Compound | IC50
42 | O=C1NCc2c(-c3ccccc3)cc3c(-c4ccccc4)c[nH]c3c21 [17a, 3,5-Diphenyl-6,7-dihydropyrrolo[3,4-g]indol-8(1H)-one] | > 10 µM

target: T4, CDK2/cyclin A (Homo sapiens, UniProt P24941); assay: radiometric protein kinase assay; assay type: biochemical; details: 10 µM concentration; ± SEM
T4 construct: made in house

Row | Compound | Residual enzyme activity CDK2/cyclin A
43 | Cc1c(-c2ccccc2)[nH]c2c3c(ccc12)CNC3=O [S18c] | 109±8%

same assay, conditions: 15 μmol/L ATP; read-out: IC50 CDK2/cyclinA

Row | Compound | IC50
44 | CCn1cc(-c2ccccc2)c2ccc3c(c21)C(=O)NC3 [15b, 1-Ethyl-3-phenyl-6,7-dihydropyrrolo[3,4-g]indol-8(1H)-one] | > 10 µM
45 | CCOC(=O)Cn1cc(-c2ccccc2)c2ccc3c(c21)C(=O)NC3 [15d, Ethyl 2-(8-oxo-3-phenyl-7,8-dihydropyrrolo[3,4-g]indol-1(6H)-yl)acetate] | > 10 µM
46 | O=C1NCc2c(-c3ccccc3)cc3c(-c4ccccc4)c[nH]c3c21 [17a, 3,5-Diphenyl-6,7-dihydropyrrolo[3,4-g]indol-8(1H)-one] | > 10 µM
